# Laboratory results as given in patent US11420975B2, “Substituted imidazo[1,5-a]pyrazines as Bruton's tyrosine kinase inhibitors” (TRANSTHERA SCIENCES (NANJING), INC., priority 2018, dated 2022).
# Where two headings read alike, the source gives them in different places.
# Key:
# [1] = Pharmacokinetic study in male beagle dogs, intragastric; type: in vivo; settings: dog, 5 mg/kg
# Description: Three adult male beagle dogs were fasted overnight before test. The test drugs were each suspended in a solution of 0.5% methylcellulose (MC) and 0.1% SDS in deionized water (w/w/v), and the suspension, each at a concentration of 1 mg/mL, was administered intragastrically at 5 mL/kg. Blood was collected 15 min, 30 min, 1 h, 2 h, 4 h, 6 h, 8 h and 24 h after administration. Animals were lightly anesthetized with chloral hydrate, and approximately 0.5 mL of whole blood was collected from the forelimb vein using a glass blood collection tube and placed in a heparin anticoagulant tube. The sample was centrifuged at 4° C./4200 rpm for 5 min. All plasma samples were stored in a refrigerator at −80±15° C. prior to analysis. An LC-MS/MS (Waters I Class UPLC-Xevo TQD tandem mass spectrometry) assay for the compounds was established prior to sample analysis. The collected plasma was quantitatively analyzed, plasma concentration-time data of animals were analyzed using WinNonlin (professional edition, version 5.2) software, a non-compartmental model was used for concentration analysis, and the pharmacokinetic parameters of the test compounds were calculated.
# BTK(C481S) = BTK(C481S) (Homo sapiens (Human), UniProt Q06187, C481S); assay: In vitro inhibitory activity against BTK(C481S) enzyme (33P-ATP filter binding); type: biochemical; settings: class symbols; read-out: IC50 BTK(C48IS)
# Description: (§1) The substrate solution was prepared by adding the substrate poly(Glu, Tyr) sodium salt (Sigma Aldrich, St. Louis, Mo.) to the substrate reaction buffer (20 mM Hepes (pH 7.5), 10 mM MgCl2, 1 mM EGTA, 0.02% Brij35, 0.02 mg/mL BSA, 0.1 mM Na3VO4, 2 mM DTT and 1% DMSO) (final substrate concentration in the reaction solution was 0.2 μM). Test compound was formulated into stock solutions at 10 mM concentration with 100% DMSO, and 3-fold serial dilution for 10 doses was performed in a 384-well cyclic olefin copolymer LDV microplate. […] Test compound in 100% DMSO was then added to the kinase reaction mixture by acoustic liquid transfer technology (Echo 550; nanoliter range) (Labcyte Inc, Sunnyvale, Calif.) and incubated for 20 min at room temperature. 33P-ATP (specific activity 10 μCi/μL) was added to the reaction mixture to initiate the reaction, followed by incubation at room temperature for 2 h. A small portion of the reaction mixture was dropped onto P-81 ion exchange filter paper (Whatman). After washing the unbound phosphate from the filter paper with 0.75% phosphate buffer (three times) and drying, the remaining radioactivity on the filter paper was measured. The kinase activity was expressed as the percentage of the remaining kinase activity in the test sample to the kinase activity in the vehicle (dimethyl sulfoxide) blank control. IC50 values were calculated by curve fitting the data obtained using Prism (GraphPad Software).
# BTK(wt) = BTK(wt) (Homo sapiens (Human), UniProt Q06187); assay: In vitro inhibitory activity against BTK(wt) enzyme (33P-ATP filter binding); type: biochemical; settings: class symbols
# Description: as §1
# TMD-8 xenograft tumor = TMD-8 xenograft tumor model; type: in vivo; settings: for TGI: bid
# Description: CB17/SCID female mice with serious immune deficiency were purchased from Beijing Vital River Laboratory Animal Technology Co., Ltd. and bred in SPF animal houses. Human TMD-8 cells (Shanghai Junrui-UFBN1682) were cultured in an RPMI 1640 culture medium containing 10% fetal bovine serum, 100 U/mL penicillin and 100 μg/mL streptomycin through monolayer culture in vitro in an incubator (37° C., 5% C02). Routine treatment was performed twice a week for passaging. At a cell saturation of 80%-90% and a required number, the cells were harvested and counted. 0.2 mL (1×10^7) of TMD-8 cells (together with matrigel at a volume ratio of 1:1) were subcutaneously inoculated into the right back of each mouse, and the tumor size could be measured about one week after inoculation. Tumor size was measured using a vernier caliper and tumor volume was calculated using the following formula: tumor volume=(length×width^2)/2.
# Chain of BTK(wt) (Q06187 whole entry): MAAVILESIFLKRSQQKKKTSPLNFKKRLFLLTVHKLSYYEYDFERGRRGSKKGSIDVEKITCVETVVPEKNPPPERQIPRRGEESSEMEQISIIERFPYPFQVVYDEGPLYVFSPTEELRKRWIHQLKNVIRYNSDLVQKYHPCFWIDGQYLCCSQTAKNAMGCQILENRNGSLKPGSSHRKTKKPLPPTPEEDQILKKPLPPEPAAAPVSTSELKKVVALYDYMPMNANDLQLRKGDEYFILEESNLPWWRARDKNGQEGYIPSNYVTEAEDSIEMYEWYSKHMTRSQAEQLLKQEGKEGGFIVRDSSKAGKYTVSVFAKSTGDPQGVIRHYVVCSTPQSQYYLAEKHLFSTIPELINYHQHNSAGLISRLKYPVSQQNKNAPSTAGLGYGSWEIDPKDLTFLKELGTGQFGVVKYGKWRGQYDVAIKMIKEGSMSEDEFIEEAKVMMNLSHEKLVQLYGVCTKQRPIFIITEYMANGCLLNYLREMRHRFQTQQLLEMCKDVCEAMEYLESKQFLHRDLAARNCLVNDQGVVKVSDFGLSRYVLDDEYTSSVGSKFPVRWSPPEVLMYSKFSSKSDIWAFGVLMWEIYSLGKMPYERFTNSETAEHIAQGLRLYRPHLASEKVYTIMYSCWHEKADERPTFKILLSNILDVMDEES
# Chain of BTK(C481S) (Q06187 whole entry C481S): as the sequence (Q06187 whole entry) above, with C481S counted along it
structure (smiles),measurement,setting,value
"Nc1nccn2c(C34CCC(NC(=O)CN5CCOCC5)(CC3)C4)nc(-c3ccc(C(=O)Nc4cc(C(F)(F)F)ccn4)cc3)c12 [Compound A-10-10, 4-(8-amino-3-(4-(2-morpholinoacetamido)bicyclo[2.2.1]heptan-1-yl)imidazo[1,5-a]pyrazin-1-yl)-N-(4-(trifluoromethyl)pyridin-2-yl)benzamide]",AUC0-INF,[1]; p.o.,14867 ng·h/mL
same,Cmax,[1]; p.o.,641 ng/mL
same,AUC(0-inf),"[1]; male, beagle, plasma, po",14900 ng·h/mL
same,Tmax,"[1]; male, beagle, plasma, po",8 h
same,half-life,"[1]; male, beagle, plasma, po",14.2 h
same,Cmax,"[1]; male, beagle, plasma, po, p.o., read-out: Cmax",641 ng/mL
same,IC50,BTK(C481S),≤ 0.1 nM
same,IC50,BTK(wt),1 to 10 nM
same,xenograft tumors disappeared (fraction),"TMD-8 xenograft tumor; 50 mg/kg group, after 27 days of administration",5/8
same,tolerance of tumor-bearing mice,TMD-8 xenograft tumor; all dosages,good tolerance
same,effect on body weight of tumor-bearing mice,TMD-8 xenograft tumor; all treatment groups,no significant weight loss
same,TGI,TMD-8 xenograft tumor; intragastric 25 mg/kg,94%
same,TGI,TMD-8 xenograft tumor; intragastric 50 mg/kg,104%
